Data as given in paper PMC9482650, “Quantitative fragmentomics allow affinity mapping of interactomes” (Nature Communications, 2022).

Tests used:
MAGI1_2 PDZ = MAGI1_2 PDZ (Homo sapiens, UniProt Q96QZ7); assay: Competitive fluorescence polarization (FP) assay; format: binding; conditions: read-out: pKd FP (converted)
Procedure: In direct fluorescence polarization assay, the fluorophore label can interfere with affinity determination and can cause large experimental bias. For this reason, affinities were determined with competitive FP measurements where the bound fluorescent peptide is chased out by increasing concentration of unlabeled competitor. In the fitting procedure, affinities of both peptides are considered. Each PDZ-domain was first tested with labeled peptides in direct experiments and then optimal labeled peptides were used in competitive experiments.
Double affinity-purified His6-MBP-PDZ were used for affinity measurements by FP. Fluorescence polarization was measured with a PHERAstar microplate reader by using 485 ± 20 nm and 528 ± 20 nm band-pass filters for excitation and emission, respectively. […] In total, the polarization of the probe was measured at eight different protein concentrations (whereas one contained no protein and corresponded to the free peptide). […] The dissociation constants of the direct and competitive FP experiments were obtained by fitting the measured direct data with a quadratic binding equation first and by fitting the measured competitive data with a competitive equation, using several obtained parameters from the first fit[71]. In part, competitive fluorescence polarization data were taken from refs. [22],[21]. […]

SYNJ2BP PDZ = SYNJ2BP PDZ (Homo sapiens, UniProt P57105); assay: Holdup assay; format: binding
SYNJ2BP PDZ, sequence (P57105 13-100 limits assumed): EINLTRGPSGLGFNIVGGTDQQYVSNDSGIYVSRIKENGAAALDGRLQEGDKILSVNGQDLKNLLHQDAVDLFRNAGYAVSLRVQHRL

MAGI1_2 PDZ, sequence (Q96QZ7 472-554 limits assumed): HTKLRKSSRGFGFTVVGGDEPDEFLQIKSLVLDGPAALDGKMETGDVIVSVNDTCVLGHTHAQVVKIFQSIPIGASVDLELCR

| Structure (SMILES) | Kd (MAGI1_2 PDZ) | Kd (SYNJ2BP PDZ) |
| --- | --- | --- |
| CC(C)C[C@H](NC(=O)[C@H](CCC(N)=O)NC(=O)[C@@H](NC(=O)[C@H](CCC(=O)O)NC(=O)[C@H](CCCNC(=N)N)NC(=O)[C@H](CCCNC(=N)N)NC(=O)[C@@H](NC(=O)[C@H](CCCNC(=N)N)NC(=O)[C@H](CO)NC(=O)[C@H](CO)NC(=O)CCC(=O)NCCCOCCOCCOCCCNC(=O)CCCC[C@@H]1SC[C@@H]2NC(=O)N[C@@H]21)[C@@H](C)O)[C@@H](C)OP(=O)(O)O)C(=O)O [HPV16-E6_-2P] | 2520 µM |  |
| CC(C)C[C@H](NC(=O)[C@H](CCC(N)=O)NC(=O)[C@@H](NC(=O)[C@H](CCC(=O)O)NC(=O)[C@H](CCCNC(=N)N)NC(=O)[C@H](CCCNC(=N)N)NC(=O)[C@@H](NC(=O)[C@H](CCCNC(=N)N)NC(=O)[C@H](CO)NC(=O)[C@@H](N)CO)[C@@H](C)O)[C@@H](C)O)C(=O)O [HPV16E6] |  | 6.56 µM |
